Measured values from US5079152A, “Antibody combining sites that exhibit stereoselective synthase activity, and methods using the same” (Scripps Clinic and Research Foundation, priority 1987, dated 1992).
Read-outs that look alike come from different tables or passages of the source.

Tested on: monoclonal antibody 24B11 (receptor lactone synthase secreted by hybridoma 24B11, ATCC HB9488)
Experiment: Kinetics of lactone-forming cyclization catalyzed by monoclonal receptor lactone synthase 24B11 (phenol release at 271 nm, Lineweaver-Burk)
Type: biochemical, mouse

Km (in the absence of binding by the unreactive enantiomer, read-out: Km for the reactive enantiomer of the substrate ligand) [µM] | kcat / kuncat (catalyzed versus uncatalyzed first order cyclization rate constant) | rate acceleration (presence versus absence of the catalytic lactone synthase molecule) [fold] | Km (racemic substrate ligand 20-100 uM, receptor 2 uM, 25 mM phosphate buffer pH 7.0, 25 degrees C, read-out: Km) [µM] | kcat (receptor 2 uM (IgG, 150,000 daltons), pH 7.0, 25 degrees C) [L/min] | Vmax (receptor 2 uM, substrate 20-100 uM, pH 7.0, 25 degrees C) [µM/min] | Compound
~38 | – | – | – | – | – | CC(=O)NCC(O)CCCC(=O)Oc1ccccc1 (single isomer, unassigned) [reactive enantiomer of the substrate ligand]
– | 167 | 167 | 76 | 0.50 | 0.99 | CC(=O)NCC(O)CCCC(=O)Oc1ccccc1 (racemic) [phenyl 6-acetamido-5-hydroxyhexanoate]
